{
  "source": "patent US12004493B2",
  "about": "“Late-onset Alzheimer's disease animal model and uses thereof” (The Board of Regents of the University of Oklahoma, priority 2018, dated 2024)",
  "origin": "cited, not measured here",
  "test_system": "early-phase AD patients",
  "details": "DAO inhibitor",
  "data": [
    {"molecule": "O=C([O-])c1ccccc1.[Na+]", "note": "[Sodium benzoate]", "values": [
      {"measurement": "cognitive and overall functions", "result": "improved cognitive and overall functions"}
    ]}
  ]
}
